As a reminder, the Ki is the dissociation constant of the complex between target and ligand, obtained from inhibition or displacement.

The target in the assay is T1, human M5 receptor (Homo sapiens, UniProt P08912).
T1 construct: expressed in transfected cells; host or cells: CHO cells
T1 sequence (P08912 1-532): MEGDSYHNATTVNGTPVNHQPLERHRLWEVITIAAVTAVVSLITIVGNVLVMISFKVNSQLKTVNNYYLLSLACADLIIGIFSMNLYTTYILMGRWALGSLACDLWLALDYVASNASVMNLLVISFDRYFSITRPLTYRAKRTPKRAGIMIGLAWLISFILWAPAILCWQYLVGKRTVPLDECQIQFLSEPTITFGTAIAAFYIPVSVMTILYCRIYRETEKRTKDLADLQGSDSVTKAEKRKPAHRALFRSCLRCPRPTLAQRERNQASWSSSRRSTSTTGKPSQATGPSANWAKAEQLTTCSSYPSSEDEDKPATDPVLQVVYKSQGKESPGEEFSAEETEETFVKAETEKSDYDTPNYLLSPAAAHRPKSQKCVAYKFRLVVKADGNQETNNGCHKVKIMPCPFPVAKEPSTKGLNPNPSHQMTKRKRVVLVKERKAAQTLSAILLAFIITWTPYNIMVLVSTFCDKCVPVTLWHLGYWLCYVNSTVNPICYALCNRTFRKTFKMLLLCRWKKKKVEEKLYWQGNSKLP
Kind of assay: Radioligand ([3H]N-methylscopolamine) binding assay, CHO cell membranes. The settings on record: 1.5 nM tritiated N-methylscopolamine, 90 minutes at 37° C.; read-out: Binding affinity (Ki) M5. The method, then:
Binding affinity (Ki) of compounds was measured by inhibition of radioligand binding to membranes from CHO cells expressing human M1, M2, M3, M4 and M5 receptors. Membranes were prepared by nitrogen cavitation and differential centrifugation as previously described (Hoare et al., Mol. Pharmacol. 2003 March; 63(3): 751-65). The radioligand employed was tritiated N-methylscopolamine, used at a concentration of 1.5 nM. A dose-response of twelve concentrations of compound was used, ranging from […]. The assay buffer was 50 mM HEPES, 100 mM NaCl, 5 mM MgCl2, 1 mM ethylenediaminetetraacetic acid, pH-adjusted to pH 7.4. Membranes, radioligand and compound were incubated together for 90 minutes at 37° C., in a total volume of 150 μL in a 96-well plate. Receptor-bound radioligand was then collected by harvesting the assay over glass fiber filters pretreated with polyethylenimine to trap the cell membranes, using rapid vacuum filtration. Harvesting and radioactivity counting was conducted as previously described (see, e.g., Hoare et al., Mol. Pharmacol. 2003 63(3):751-65); Erratum at Mol. Pharmacol. 2005 July; 68(1): 260).

On to `C[C@@H]1CN(c2cnc(C(F)(F)F)cn2)C[C@H](C)N1C(=O)OCCC1CCN(Cc2ccccc2)CC1` [Compound 1, 2-(1-benzylpiperidin-4-yl)ethyl (2R,6S)-2,6-dimethyl-4-[5-(trifluoromethyl)pyrazin-2-yl]piperazine-1-carboxylate], for which the Ki was ≥ 1000 nM. The result for `C[C@@H]1CN(c2cnc(C(F)(F)F)cn2)C[C@@H](C)N1C(=O)OCCC1CCN(Cc2ccccc2)CC1` [Compound 2, 2-(1-benzylpiperidin-4-yl)ethyl (2R,6R)-2,6-dimethyl-4-[5-(trifluoromethyl)pyrazin-2-yl]piperazine-1-carboxylate] reads ≥ 1000 nM.
